For 3 molecules, IC50 and inhibition results are on record in publication PMC8060913, “The Calcium-Activated Chloride Channel TMEM16A is Inhibitied by Liquiritigenin” (Frontiers in Pharmacology, 2021).

Like-named read-outs stand apart in the source and are kept apart here.

Common to all, as to assay type: cell-based
In test [1] the target is T1, human TMEM16A (hTMEM16A, anoctamin 1) (Homo sapiens, UniProt Q5XXA6).
T1 construct: gene ANO1; untagged complete CDS
T1 sequence (Q5XXA6 1-986): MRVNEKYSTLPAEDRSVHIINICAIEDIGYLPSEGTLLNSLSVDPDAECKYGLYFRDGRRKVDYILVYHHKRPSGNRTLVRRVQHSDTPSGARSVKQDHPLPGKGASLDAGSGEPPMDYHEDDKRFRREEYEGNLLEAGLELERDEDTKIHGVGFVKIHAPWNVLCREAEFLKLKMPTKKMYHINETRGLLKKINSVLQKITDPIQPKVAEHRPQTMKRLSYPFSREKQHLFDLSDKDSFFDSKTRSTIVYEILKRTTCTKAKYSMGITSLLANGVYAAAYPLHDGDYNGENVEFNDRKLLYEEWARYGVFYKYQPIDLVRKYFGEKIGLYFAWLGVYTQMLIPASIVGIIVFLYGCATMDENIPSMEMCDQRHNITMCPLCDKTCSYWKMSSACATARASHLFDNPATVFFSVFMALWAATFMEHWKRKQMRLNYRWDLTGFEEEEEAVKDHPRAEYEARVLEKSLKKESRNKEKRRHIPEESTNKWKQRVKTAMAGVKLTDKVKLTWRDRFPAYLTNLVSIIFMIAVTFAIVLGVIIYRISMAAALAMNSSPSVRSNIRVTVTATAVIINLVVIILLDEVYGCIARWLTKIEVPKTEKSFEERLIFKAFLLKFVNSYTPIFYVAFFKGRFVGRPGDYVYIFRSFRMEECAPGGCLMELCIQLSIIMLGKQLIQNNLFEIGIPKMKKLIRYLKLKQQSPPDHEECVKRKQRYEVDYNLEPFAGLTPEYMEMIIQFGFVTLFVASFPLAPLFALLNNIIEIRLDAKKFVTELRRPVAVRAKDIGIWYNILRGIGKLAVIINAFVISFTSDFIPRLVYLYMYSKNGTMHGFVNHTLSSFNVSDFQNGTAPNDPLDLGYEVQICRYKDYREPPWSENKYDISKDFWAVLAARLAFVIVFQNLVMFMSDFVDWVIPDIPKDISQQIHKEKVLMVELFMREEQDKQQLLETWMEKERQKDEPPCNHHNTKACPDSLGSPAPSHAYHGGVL
The test is described as follows: whole-cell patch-clamp in transfected HEK293T cells, +[…] mV. Background: In patch-clamp work, channel activity is measured electrically.

Test [2] has as its target T2, mouse TMEM16A (mTMEM16A, anoctamin 1) (Mus musculus, UniProt Q8BHY3).
T2 construct: gene Ano1
T2 sequence (Q8BHY3 1-960): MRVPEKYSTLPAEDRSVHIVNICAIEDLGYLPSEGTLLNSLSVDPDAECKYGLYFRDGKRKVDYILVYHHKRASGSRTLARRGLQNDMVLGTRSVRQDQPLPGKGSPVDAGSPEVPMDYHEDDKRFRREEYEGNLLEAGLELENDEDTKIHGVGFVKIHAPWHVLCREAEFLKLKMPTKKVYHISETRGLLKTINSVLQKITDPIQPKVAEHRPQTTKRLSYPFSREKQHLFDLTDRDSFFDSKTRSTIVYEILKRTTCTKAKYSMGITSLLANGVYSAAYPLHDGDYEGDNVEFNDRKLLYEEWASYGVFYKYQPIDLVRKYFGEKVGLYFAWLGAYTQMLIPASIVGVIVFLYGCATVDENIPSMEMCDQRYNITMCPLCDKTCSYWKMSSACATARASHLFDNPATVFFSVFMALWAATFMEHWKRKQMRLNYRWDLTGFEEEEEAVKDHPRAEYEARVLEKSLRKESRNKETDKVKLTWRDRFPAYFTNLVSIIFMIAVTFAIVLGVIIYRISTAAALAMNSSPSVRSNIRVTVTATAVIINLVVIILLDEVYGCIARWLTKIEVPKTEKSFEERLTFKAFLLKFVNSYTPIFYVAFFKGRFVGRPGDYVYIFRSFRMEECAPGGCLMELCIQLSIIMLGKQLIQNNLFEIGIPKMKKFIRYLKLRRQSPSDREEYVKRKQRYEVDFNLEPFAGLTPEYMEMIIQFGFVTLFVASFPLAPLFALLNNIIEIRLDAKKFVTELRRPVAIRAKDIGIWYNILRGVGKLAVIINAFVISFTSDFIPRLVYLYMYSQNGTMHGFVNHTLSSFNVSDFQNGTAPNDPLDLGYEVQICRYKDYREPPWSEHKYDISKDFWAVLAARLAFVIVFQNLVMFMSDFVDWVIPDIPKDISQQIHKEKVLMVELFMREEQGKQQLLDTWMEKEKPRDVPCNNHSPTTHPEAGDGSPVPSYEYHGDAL
Described as above.

The target of test [3] is T2, mouse TMEM16A (mTMEM16A, anoctamin 1). The test is described as follows: whole-cell patch-clamp in transfected HEK293T cells, % inhibition at […], +[…] mV. The note with it: HEK-293T.
Test [4] has as its target T1, human TMEM16A (hTMEM16A, anoctamin 1). Described as above. The note with it: HEK-293T.

One may read the IC50 as the concentration at which inhibition is half-maximal. For `O=C1C[C@@H](c2ccc(O)cc2)Oc2cc(O)ccc21` [liquiritigenin], the IC50 in test [1] was 12.9 µM; in test [2], 21.3 µM.
Regarding `O=C1c2ccc(O)cc2OCC1c1ccc(O)cc1` (stereo not drawn) [dihydrodaidzein], the IC50 was determined as 251 µM in test [1] (read-out: IC50) and 178 µM in test [2] (read-out: IC50).
A word on the inhibition: it is the change of the read-out against control, counted positive when it falls. The low end stands for a weak effect, the high end for a strong effect. `C[C@]12CC[C@@H]3c4ccc(O)cc4CC[C@H]3[C@@H]1C[C@@H](O)[C@@H]2O` [E3, estriol]: the results for the inhibition at 100 µM in test [3] and in test [4] were 56.8% and 43.5%, respectively.
